Patent publication US20100022562A1, “Use of Plant Growth Regulators to Reduce Abscisic Acid Related Plant Leaf Yellowing” (priority 2008, published 2010)

How the values were obtained:
Type in all cases: in vivo
Pansy plants [1] = assay: Pansy shelf life under drought (daily wilting rating, sales index)
Outline: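 Greenhouse pansies were treated with 20 mL solution each, 3 mL foliar plus 17 mL root drench, then watering was withheld. Wilting was rated daily on a 1–4 scale, and shelf life was the day before the rating reached 2.5. Yellow leaves were counted 3 days after treatment.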

Pansy plants [2] = assay: Pansy yellow leaf number (leaf yellowing)
Experimental: All studies were conducted in the greenhouse at the research farm of Valent BioSciences Corporation (Long Grove, Ill.). Pansy plants were obtained either from local retailers as mature plants, or plugs from wholesale nurseries. Plugs of Pansy plants were transplanted into an 18-cell flat filled with Promix BX (available from Premier Horticulture Inc. Quakertown, Pa.) and grown for about 30 days prior to treatment. During growing periods, plants received daily irrigation and weekly fertilizer (1 g/L all purpose fertilizer 20-20-20, The Scotts Company, Marysville, Ohio).
(§1) Uniform plants were selected for the study. Prior to chemical treatment, plants were saturated with water and then drained for about two hours. A total of 20 mL chemical solution, which is equivalent to about 10% of the cell volume, was applied to each plant with 3 mL solution foliar applied to canopy and 17 mL solution drench applied to root zone. Unless specified, watering of plants was stopped after chemical treatment.
After chemical treatment, plants were arranged in a randomized complete block experimental design. The plants were rated daily for the extent of wilting on a scale from 1 (no wilting) to 4 (complete wilting) to generated a sales index rating. A rating of 2.5 was the point at which a plant was determined to be unmarketable and the previous day was recorded as the shelf life of that plant in days. […] Leaf transpiration rate was measured after treatment using a LI-1600 Steady State Porometer (LI-Cor, Lincoln, Nebr.). The transpiration rate of each treatment was calculated as the percentage of that of control at each day to reduce day-to-day variation caused by changes of environmental condition such as light intensity, humidity, and temperature.

Pansy plants [3] = assay: Pansy leaf transpiration rate (LI-1600 Steady State Porometer); details: Matrix Premium Rose
Experimental: as §1
After chemical treatment, plants were arranged in a randomized complete block experimental design. The plants were rated daily for the extent of wilting on a scale from 1 (no wilting) to 4 (complete wilting) to generated a sales index rating. A rating of 2.5 was the point at which a plant was determined to be unmarketable and the previous day was recorded as the shelf life of that plant in days. Yellow leaf number was counted at 3 days after chemical treatment. Leaf transpiration rate was measured after treatment using a LI-1600 Steady State Porometer (LI-Cor, Lincoln, Nebr.). The transpiration rate of each treatment was calculated as the percentage of that of control at each day to reduce day-to-day variation caused by changes of environmental condition such as light intensity, humidity, and temperature.

c1ccc(CNc2ncnc3nc[nH]c23)cc1 [BA, 6-benzylaminopurine]
Shelf life (Pansy plants [1]; 0.2 mg BA, Matrix Yellow, Table 5): 3.8 days
Shelf life (Pansy plants [1]; 0.2 mg BA, no water, Whispers White, Table 15): 2.5 days
Shelf life (Pansy plants [1]; 2 mg BA at 0 d, Matrix Premium Rose, Table 11): 3.7 days
Shelf life (Pansy plants [1]; 2 mg BA at +1 d, Matrix Premium Rose, Table 11): 4.0 days
Shelf life (Pansy plants [1]; 2 mg BA at −1 d (1 day prior to ABA treatment day), Matrix Premium Rose, Table 11): 3.8 days
Shelf life (Pansy plants [1]; 2 mg BA, Delta Premium Pure White, Table 23): 4.0 days
Shelf life (Pansy plants [1]; 2 mg BA, Matrix Yellow, Table 5): 3.8 days
Shelf life (Pansy plants [1]; 2 mg BA, no water, Matrix Premium Rose, Table 13): 4.0 days
Shelf life (Pansy plants [1]; 2 mg BA, no water, Whispers White, Table 15): 2.7 days
Shelf life (Pansy plants [1]; 2 mg, Clear Sky Yellow, drought, Table 8): 3.8 days
Shelf life (Pansy plants [1]; 2 mg, Crown Azure Blue, drought, Table 9): 3.3 days
Shelf life (Pansy plants [1]; 2 mg, Matrix Yellow, drought, Table 7): 3.5 days
Shelf life (Pansy plants [1]; 2 mg, Matrix Yellow, drought, Table 10): 2.3 days
Yellow leaf number (Pansy plants [2]; 0.2 mg BA, Matrix Yellow, 3 d after treatment, Table 5): 1.8
Yellow leaf number (Pansy plants [2]; 0.2 mg BA, no water, Whispers White, 3 d after treatment, Table 15): 7.8
Yellow leaf number (Pansy plants [2]; 2 mg BA at 0 d, Matrix Premium Rose, 3 d after treatment, Table 11): 0.8
Yellow leaf number (Pansy plants [2]; 2 mg BA at +1 d, Matrix Premium Rose, 3 d after treatment, Table 11): 0.8
Yellow leaf number (Pansy plants [2]; 2 mg BA at −1 d, Matrix Premium Rose, 3 d after treatment, Table 11): 0.7
Yellow leaf number (Pansy plants [2]; 2 mg BA, Delta Premium Pure White, 3 days after treatment, Table 23): 1.3
Yellow leaf number (Pansy plants [2]; 2 mg BA, Delta Premium Pure White, 7 days after treatment, Table 23): 6.2
Yellow leaf number (Pansy plants [2]; 2 mg BA, Matrix Yellow, 3 d after treatment, Table 5): 1.5
Yellow leaf number (Pansy plants [2]; 2 mg BA, no water, Matrix Premium Rose, 3 d after treatment, Table 13): 0.8
Yellow leaf number (Pansy plants [2]; 2 mg BA, no water, Whispers White, 3 d after treatment, Table 15): 6.3
Yellow leaf number (Pansy plants [2]; 2 mg, Clear Sky Yellow, drought, 3 d after treatment, Table 8): 0.0
Yellow leaf number (Pansy plants [2]; 2 mg, Crown Azure Blue, drought, 3 d after treatment, Table 9): 0.3
Yellow leaf number (Pansy plants [2]; 2 mg, Matrix Yellow, drought, 3 d after treatment, Table 7): 7.8
Yellow leaf number (Pansy plants [2]; 2 mg, Matrix Yellow, drought, 3 d after treatment, Table 10): 7.2
Transpiration rate (% of control) (Pansy plants [3]; 0.2 mg BA, no water, day 1 after treatment, Table 16): 101 % of control
Transpiration rate (% of control) (Pansy plants [3]; 0.2 mg BA, no water, day 2 after treatment, Table 16): 29 % of control
Transpiration rate (% of control) (Pansy plants [3]; 0.2 mg BA, no water, day 3 after treatment, Table 16): 7 % of control
Transpiration rate (% of control) (Pansy plants [3]; 0.2 mg BA, watered, day 1 after treatment, Table 16): 102 % of control
Transpiration rate (% of control) (Pansy plants [3]; 0.2 mg BA, watered, day 2 after treatment, Table 16): 98 % of control
Transpiration rate (% of control) (Pansy plants [3]; 0.2 mg BA, watered, day 3 after treatment, Table 16): 100 % of control
Transpiration rate (% of control) (Pansy plants [3]; 0.2 mg BA, watered, day 4 after treatment, Table 16): 101 % of control
Transpiration rate (% of control) (Pansy plants [3]; 0.2 mg BA, watered, day 5 after treatment, Table 16): 100 % of control
Transpiration rate (% of control) (Pansy plants [3]; 0.2 mg BA, watered, day 7 after treatment, Table 16): 99 % of control
Transpiration rate (% of control) (Pansy plants [3]; 0.2 mg BA, watered, day 10 after treatment, Table 16): 100 % of control
Transpiration rate (% of control) (Pansy plants [3]; 2 mg BA at 0 d, day 1 after ABA treatment, Table 12): 105 % of control
Transpiration rate (% of control) (Pansy plants [3]; 2 mg BA at 0 d, day 2 after ABA treatment, Table 12): 97 % of control
Transpiration rate (% of control) (Pansy plants [3]; 2 mg BA at 0 d, day 3 after ABA treatment, Table 12): 98 % of control
Transpiration rate (% of control) (Pansy plants [3]; 2 mg BA at +1 d, day 1 after ABA treatment, Table 12): 96 % of control
Transpiration rate (% of control) (Pansy plants [3]; 2 mg BA at +1 d, day 2 after ABA treatment, Table 12): 101 % of control
Transpiration rate (% of control) (Pansy plants [3]; 2 mg BA at +1 d, day 3 after ABA treatment, Table 12): 107 % of control
Transpiration rate (% of control) (Pansy plants [3]; 2 mg BA at −1 d, day 1 after ABA treatment, Table 12): 115 % of control
Transpiration rate (% of control) (Pansy plants [3]; 2 mg BA at −1 d, day 2 after ABA treatment, Table 12): 104 % of control
Transpiration rate (% of control) (Pansy plants [3]; 2 mg BA at −1 d, day 3 after ABA treatment, Table 12): 109 % of control
Transpiration rate (% of control) (Pansy plants [3]; 2 mg BA, no water, day 1 after treatment, Table 14): 108 % of control
Transpiration rate (% of control) (Pansy plants [3]; 2 mg BA, no water, day 1 after treatment, Table 16): 101 % of control
Transpiration rate (% of control) (Pansy plants [3]; 2 mg BA, no water, day 2 after treatment, Table 14): 71 % of control
Transpiration rate (% of control) (Pansy plants [3]; 2 mg BA, no water, day 2 after treatment, Table 16): 34 % of control
Transpiration rate (% of control) (Pansy plants [3]; 2 mg BA, no water, day 3 after treatment, Table 14): 54 % of control
Transpiration rate (% of control) (Pansy plants [3]; 2 mg BA, no water, day 3 after treatment, Table 16): 14 % of control
Transpiration rate (% of control) (Pansy plants [3]; 2 mg BA, no water, day 4 after treatment, Table 14): 35 % of control
Transpiration rate (% of control) (Pansy plants [3]; 2 mg BA, watered, day 1 after treatment, Table 14): 109 % of control
Transpiration rate (% of control) (Pansy plants [3]; 2 mg BA, watered, day 1 after treatment, Table 16): 99 % of control
Transpiration rate (% of control) (Pansy plants [3]; 2 mg BA, watered, day 2 after treatment, Table 14): 102 % of control
Transpiration rate (% of control) (Pansy plants [3]; 2 mg BA, watered, day 2 after treatment, Table 16): 97 % of control
Transpiration rate (% of control) (Pansy plants [3]; 2 mg BA, watered, day 3 after treatment, Table 14): 101 % of control
Transpiration rate (% of control) (Pansy plants [3]; 2 mg BA, watered, day 3 after treatment, Table 16): 98 % of control
Transpiration rate (% of control) (Pansy plants [3]; 2 mg BA, watered, day 4 after treatment, Table 14): 101 % of control
Transpiration rate (% of control) (Pansy plants [3]; 2 mg BA, watered, day 4 after treatment, Table 16): 97 % of control
Transpiration rate (% of control) (Pansy plants [3]; 2 mg BA, watered, day 5 after treatment, Table 14): 99 % of control
Transpiration rate (% of control) (Pansy plants [3]; 2 mg BA, watered, day 5 after treatment, Table 16): 101 % of control
Transpiration rate (% of control) (Pansy plants [3]; 2 mg BA, watered, day 7 after treatment, Table 14): 98 % of control
Transpiration rate (% of control) (Pansy plants [3]; 2 mg BA, watered, day 7 after treatment, Table 16): 97 % of control
Transpiration rate (% of control) (Pansy plants [3]; 2 mg BA, watered, day 10 after treatment, Table 14): 101 % of control
Transpiration rate (% of control) (Pansy plants [3]; 2 mg BA, watered, day 10 after treatment, Table 16): 102 % of control
Transpiration rate (% of control) (Pansy plants [3]; 2 mg BA, watered, day 15 after treatment, Table 14): 98 % of control
